Reference: paper PMC11643720, “Addressing the Evolution of Cardenolide Formation in Iridoid-Synthesizing Plants: Site-Directed Mutagenesis of PRISEs (Progesterone-5β-Reductase/Iridoid Synthase-like Enzymes) of Plantago Species” (Molecules, 2024)
Like-named read-outs stand apart in the source and are kept apart here.

Tests used:
[1] = system: T1, rPmdP5βR1 (PmdP5βR1, PmdP5βR); assay: NADPH oxidation at […] nm, Michaelis-Menten; assay type: biochemical, Plantago media; conditions: 0.2 mM NADPH, phosphate buffer pH 8.0, 40 °C, SD < 25%
T1 construct: gene P5βR1; full-length CDS 1170 bp, 389 aa; pDEST17, N-terminal 6xHis tag, E. coli SoluBL21 (mutants BL21(DE3)), Ni-NTA; printed WKF numbers of the two species may be swapped; wild type has F156 and A346

[2] = system: T2, rPlP5βR1 (PlP5βR1, PlP5βR); assay: NADPH oxidation at […] nm, Michaelis-Menten; assay type: biochemical, Plantago lanceolata; conditions: 0.2 mM NADPH, phosphate buffer pH 8.0, 40 °C, SD < 25%, read-out: rPlP5βR1 / L156F
T2 construct: gene P5βR1; full-length CDS 1170 bp, 389 aa; pDEST17, N-terminal 6xHis tag, E. coli SoluBL21 (mutants BL21(DE3)), Ni-NTA; printed WKF numbers of the two species may be swapped; wild type has L156 and L346 (abstract misprints A156, F346)

[3] = system: T2, rPlP5βR1 (PlP5βR1, PlP5βR); assay: NADPH oxidation at […] nm, Michaelis-Menten; assay type: biochemical, Plantago lanceolata; conditions: 0.2 mM NADPH, phosphate buffer pH 8.0, 40 °C; SD < 25%
[4] = system: T2, rPlP5βR1 (PlP5βR1, PlP5βR); assay: NADPH oxidation at […] nm, Michaelis-Menten; assay type: biochemical, Plantago lanceolata; conditions: 0.2 mM NADPH, phosphate buffer pH 8.0, 40 °C, SD < 25%, read-out: rPlP5βR1 / DMT
[5] = system: T1, rPmdP5βR1 (PmdP5βR1, PmdP5βR); assay: NADPH oxidation at […] nm, Michaelis-Menten; assay type: biochemical, Plantago media; conditions: 0.2 mM NADPH, phosphate buffer pH 8.0, 40 °C, SD < 25%, read-out: rPmdP5βR1 / DMT
[6] = system: T3, rPmdP5βR1 (PmdP5βR1, PmdP5βR); conditions: read-out: rPmdP5βR1 / F156L; 0.2 mM NADPH, phosphate buffer pH 8.0, 40 °C, DMSO added at 0.4-0.6 mM progesterone; SD < 25%
T3 construct: gene P5βR1

[7] = system: T3, rPmdP5βR1 (PmdP5βR1, PmdP5βR); conditions: read-out: rPmdP5βR1 / A346L; 0.2 mM NADPH, phosphate buffer pH 8.0, 40 °C, DMSO added at 0.4-0.6 mM progesterone; SD < 25%
[8] = system: T4, rPlP5βR1 (PlP5βR1, PlP5βR); conditions: read-out: rPlP5βR1 / L346A; 0.2 mM NADPH, phosphate buffer pH 8.0, 40 °C, DMSO added at 0.4-0.6 mM progesterone; SD < 25%
T4 construct: gene P5βR1

[9] = DMSO added at 0.4-0.6 mM progesterone

Km [1] | Km [2] | Km [3] | Km [5] | Compound | Km [4] | Km [1, 9] | Km [4, 9] | Km [6] | Km [5, 9] | Km [7] | Km [2, 9] | Km [8]
46 µM | 16 µM | 66 µM |  | O=C1C=CCCC1 [2-cyclohexen-1-one] |  |  |  |  |  |  |  | 
19 µM |  | 100 µM | 7 µM | C/C(C=O)=C\CC/C(C)=C/C=O [8-oxogeranial] | 10 µM |  |  |  |  |  |  | 
 |  |  |  | CC(=O)[C@H]1CC[C@H]2[C@@H]3CCC4=CC(=O)CC[C@]4(C)[C@H]3CC[C@]12C [progesterone] |  | 67 µM | 44 µM | 128 µM | 587 µM | 218 µM | 451 µM | 170 µM

Compound | Km [1] | Km [2] | Km [3] | Km [5] | Km [4] | Km [1, 9] | Km [4, 9] | Km [6] | Km [5, 9] | Km [7] | Km [2, 9] | Km [8]
C=CC(C)=O [methyl vinyl ketone] | 33 µM |  | 100 µM |  | 216 µM |  |  |  |  |  |  | 
